In publication PMC6332226, “Potent PPARγ Ligands from Swietenia macrophylla Are Capable of Stimulating Glucose Uptake in Muscle Cells” (Molecules, 2015):
Values belong to the compound of their own block, whether it stands above or below them.

Columns and labels:
[1] = system: differentiated 3T3-L1 adipocyte cells; assay: mRNA expression of PPARγ and adipogenic markers by quantitative RT-PCR; format: cell-based; conditions: 2 µM compound, 7 days; for PPARγ mRNA expression, fold elevation: vs DMSO; for expression levels of adipogenic markers (adiponectin, adipsin, PPARγ, GLUT4): 50 nM rosiglitazone or 1 μM insulin, normalized to β-actin, DMSO = 1
Experimental: Figure 5 The analysis of PPARγ and selected adipogenic gene expression in differentiated 3T3-L1 adipocyte cells with quantitative RT-PCR. […] The expression values were normalized against a housekeeping gene, β-actin.
For the gene expression study, mature 3T3-L1 adipocytes were lysed 7 days after the induction of cellular differentiation. The total RNA samples were prepared according to the manufacturer's protocol (TRIzol reagent, Invitrogen Life Technologies, Carlsbad, CA, USA). The mRNA expression of the target genes was measured by quantitative RT-PCR with an iCycler iQ5 PCR Thermal Cycler (Bio-Rad Laboratories, Hercules, CA, USA). The primers for the adipogenesis-related genes, adiponectin, adipsin, GLUT4 and PPARγ, were designed using Primer 3 software (Table 1). Real-time PCR was performed according to the manufacturer’s protocol (SYBR-Green One-Step Quantitative RT-PCR). Briefly, 5 ng of total RNA, 50 nM of each primer, iScript RT enzyme and the universal SYBR Green reaction mix (Bio-Rad Laboratories) were mixed well in a final volume of 30 µL. All the PCR reactions were performed as follows: 1 cycle of 50 °C for 2 min and 95 °C for 10 min, followed by 40 cycles of 95 °C for 15 s and 60 °C for 1 min. The PCR products were subjected to a melting-curve analysis. The expression levels were normalized against a housekeeping gene, β-actin, and the expression levels of the genes in the DMSO treated cells were designated as 1.

[2] = system: C2C12 muscle cells; assay: GLUT4 translocation assay (immunofluorescence); format: cell-based; conditions: for GLUT4 translocation to the plasma membrane / time at which GLUT4 translocation occurs after treatment: 2 µM compound
Description: (§1) Figure 6 The compounds affected the distribution of GLUT4 proteins and facilitated glucose uptake in the C2C12 muscle cells. The GLUT4 proteins were visualized via the green fluorescent FITC labeled-GLUT4 antibody. […] The white arrows show the presence of GLUT4 near the plasma membrane, and the red arrows show the presence of GLUT4 within the nucleus. The figures denote the time lapse (m = minutes) after treatment. The images were captured using a LSM710 laser scanning microscope with a 63X oil immersion objective (Carl Zeiss, Oberkochen, Germany); (F) The amount of 2-NBDG uptake in the cells after treatment 6OA, DS and Sw or insulin was quantified at OD 510 nm. The fold increase was plotted against the treated concentration of natural compounds. The symbol * denotes a significant difference at p < 0.05 compared with DMSO (Tukey’s test, n = 6), DMSO = 1.
The differentiated C2C12 muscle cells cultured in 8-well chamber slides were treated with DMSO, insulin and S. macrophylla compounds for 15, 30, 60 and 120 min in DMEM low glucose + 0.1% (w/v) BSA. The cells were then fixed with 4% (v/v) paraformaldehyde, washed with MAXwash^TM washing medium (Active Motif, Tokyo, Japan) and blocked with Maxblock^TM blocking medium (Active Motif). The cells were incubated with the GLUT4 antibody for 16 h at 4 °C and then with the fluorescent conjugated secondary antibody for 2 h at room temperature. 100 µL of Fluoroshield^TM with DAPI (Sigma-Aldrich, St. Louis, MO, USA) was added to each well and mounted with a cover slip for imaging.

[3] = system: 3T3-L1 preadipocyte cells; assay: Adipocyte differentiation assay, Oil Red O staining of lipid droplets; format: cell-based; conditions: for induction of 3T3-L1 differentiation into lipid-producing adipocytes: 2–50 µM, lower level than insulin and rosiglitazone; for ORO stained lipid droplets, fold higher than vehicle treated cells: compounds 2–50 µM; for first appearance of lipid droplets after treatment: 3T3-L1 cells
Experimental: Figure 4 The semi-quantification of lipid droplets produced by differentiated 3T3-L1 cells at day 7 after the compound treatment. The quantification was performed by dissolving the cells in isopropanol and measuring the absorbance read out at 510 nm. […] The symbol ** denotes a significant difference at p < 0.01 compared with DMSO (Tukey’s test, n = 3).
3T3-L1 and C2C12 cells were purchased from the American Type Culture Collection (Manassas, VA, USA). The 3T3-L1 and C2C12 cells were maintained in DMEM medium supplemented with 10% (v/v) bovine serum and 10% (v/v) fetal bovine serum (FBS), respectively. The differentiation of adipocytes was initiated two days after the cells reached confluence by adding 0.5 mM isobutyl methylxanthine (IBMX), 1 µM dexamethasone and 1 µg/mL insulin to DMEM containing 10% (v/v) FBS. Two days later, the differentiation medium was replaced by DMEM containing 10% (v/v) FBS and 1 µg/mL insulin. These differentiated cells were stabilized in DMEM + 10% (v/v) FBS for another 2 days. C2C12 myocytes were induced to differentiate by substituting 10% (v/v) FBS with 10% (v/v) horse serum once the cells reached confluence. Fresh differentiation medium was replaced every two days until the myotube formation was complete.
Adipocyte differentiation is one of the major cellular responses upon PPARγ activation. 3T3-L1 pre-adipocyte cells were seeded on 24-well plates at 5 × 10^4 cells per well. Two days after reaching confluence, the cells were triggered to differentiate by insulin (positive control), DMSO (negative control), TZD, and the three natural compounds isolated from S. macrophylla (6OA, DS and Sw). […] For visualization, lipid droplets were stained by Oil Red O (ORO). The trapped ORO between the lipid droplets was then dissolved in absolute isopropanol, and the absorbance of the dissolved ORO was semi-quantitatively measured by a SpectraMax M5 multi-detection microplate reader (Molecular Devices) at a wavelength of 510 nm.

[4] = system: C2C12 muscle cells; assay: Glucose uptake assay with 2-NBDG; format: cell-based; conditions: 2 µM compound, 60 min treatment
Description: as §1
C2C12 cells were grown and differentiated in 96-well culture plates. The differentiated C2C12 muscle cells were treated with DMSO, insulin, and S. macrophylla compounds for 60 min in DMEM + 0.1% (w/v) BSA. After washing three times with Krebs-Ringer Phosphate H (KRPH) buffer + 0.1% (w/v) BSA, the cells were incubated with 100 μM 2-NBDG for 15 min. After washing three times with KRPH buffer + 0.1% (w/v) BSA, the uptake of 2-NBDG was observed under a fluorescence microscope, and the fluorescence of 2-NBDG was measured with a microplate reader (Perkin Elmer, Waltham, MA, USA).

[5] = molecular target: T1, recombinant PPARγ (Homo sapiens, UniProt P37231); assay: ELISA PPARγ-binding assay (ligand-dependent binding of PPARγ to p300 coactivator); conditions: highest binding; p300-coated plate, absorbance 405 nm
T1 construct: amino acid positions 107–477 for PPARγ; His tag (pET28a) (N); made in house; host or cells: E. coli BL21
T1 sequence (P37231 107-477 isoform P37231-2): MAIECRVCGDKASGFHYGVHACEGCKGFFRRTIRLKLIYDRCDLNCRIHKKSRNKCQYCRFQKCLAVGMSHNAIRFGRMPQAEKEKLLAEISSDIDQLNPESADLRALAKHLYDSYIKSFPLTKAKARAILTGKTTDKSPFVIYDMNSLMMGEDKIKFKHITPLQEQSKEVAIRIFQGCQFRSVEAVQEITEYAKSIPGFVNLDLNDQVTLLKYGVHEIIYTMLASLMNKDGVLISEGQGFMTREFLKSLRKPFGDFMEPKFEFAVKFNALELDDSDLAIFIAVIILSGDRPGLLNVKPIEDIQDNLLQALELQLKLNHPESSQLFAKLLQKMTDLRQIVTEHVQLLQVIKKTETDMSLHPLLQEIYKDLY
T1 sequence (Q09472 39-221 partner limits assumed): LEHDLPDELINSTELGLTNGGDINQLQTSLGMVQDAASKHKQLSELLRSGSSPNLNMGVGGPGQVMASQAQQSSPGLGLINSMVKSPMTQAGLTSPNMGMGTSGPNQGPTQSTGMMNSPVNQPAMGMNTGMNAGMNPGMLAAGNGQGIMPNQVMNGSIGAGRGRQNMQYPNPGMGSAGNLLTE
Experimental: The truncated p300 recombinant protein included a specific binding domain, LXXLL, for protein-protein interactions between p300 and PPARγ.
The ELISA binding assay used is based on the principle of binding between the ligand-dependent PPARγ and its coactivator. Briefly, 5 µg of purified recombinant p300, a PPARγ coactivator, was used to coat a 96-well microtitre plate in the presence of coating buffer (150 mM Na2CO3, 350 mM NaHCO3, pH 9.6). The plate was incubated for 2 h at room temperature. Nonspecific binding sites were blocked with 100 µL of blocking buffer [2% (w/v) BSA in 10 mM PBS, pH 7.2] for 2 h at room temperature. The recombinant PPARγ cell lysate was prepared by using the freeze/thaw cell lysis method [37]. […] These mixtures were added to the p300-coated 96-well plate, which was then incubated for 1 h at 37 °C. The presence of the PPARγ ligand led to the formation of a p300-PPARγ-ligand complex. The detection of this complex was performed through the addition of 100 µL of anti-PPARγ antibody (1:1000 dilutions) and incubation for 1 h at room temperature. Subsequently, 100 µL of the AP conjugated donkey anti-goat antibody (1:1000 dilutions) was added into each well, and the plates were at room temperature for 1 h. The pNPP substrate solution (100 µL) was added to each well and incubated for 1 h at room temperature in the dark. Finally, 2.0 N sulphuric acid (50 µL per well) was added to each well to stop the enzymatic reaction. The absorbance at 405 nm was detected with a microplate reader (SpectraMax M5, Molecular Devices, Sunnyvale, CA, USA). Throughout the procedures, the microtitre plate was washed three times with washing buffer [10 mM PBS, pH 7.2, containing 0.1% (v/v) Tween 20] after each incubation step.

[6] = system: diabetic rats; conditions: diabetic rats ref 5; cited from earlier work

Compound: COC(=O)C(OC(C)=O)C1C(C)(C)C(O)C2CC3=C4CC(=O)O[C@@H](c5ccoc5)[C@@]4(C)CCC3[C@@]1(C)C2=O (stereo partly shown) [6OA, 6-O-acetylswietenolide]
PPARγ mRNA expression, fold elevation [1]: five- to six
expression levels of adipogenic markers (adiponectin, adipsin, PPARγ, GLUT4) [1]: increase
GLUT4 translocation to the plasma membrane [2]: increase in GLUT4 translocation
time at which GLUT4 translocation occurs after treatment [2]: 15 min
induction of 3T3-L1 differentiation into lipid-producing adipocytes [3]: induce 3T3-L1 cells differentiation into lipid-producing adipocytes
ORO stained lipid droplets, fold higher than vehicle treated cells ([3]; day 7): 1.3–1.6 fold
glucose (2-NBDG) uptake [4]: significant increase
fold increase of binding between PPARγ and coactivator compared to vehicle (DMSO) [5]: 50 fold

Compound: Insulin: known adipocyte differentiation inducer, positive control [reference compound]
expression levels of adipogenic markers (adiponectin, adipsin, PPARγ, GLUT4) [1]: significantly increased
time at which GLUT4 translocation occurs after stimulation ([2]; 200 nM insulin): 15 min
ORO stained lipid droplets, fold higher than vehicle (DMSO) ([3]; 1 µM insulin, day 7): 4.8 fold
first appearance of lipid droplets after treatment [3]: 3 days

Compound: CN(CCOc1ccc(CC2SC(=O)NC2=O)cc1)c1ccccn1 (stereo not shown) [Rosiglitazone, rosiglitazone, reference compound]
expression levels of adipogenic markers (adiponectin, adipsin, PPARγ, GLUT4) [1]: increase
first appearance of lipid droplets after treatment [3]: 5 days

More lines, main results first:

fold increase of binding between PPARγ and coactivator compared to vehicle (DMSO) [5]: 38 fold
Compound: COC(=O)C(OC(C)=O)C1C(C)(C)C(OC(C)=O)C2CC3=C4CC(=O)O[C@@H](c5ccoc5)[C@@]4(C)CCC3[C@@]1(C)C2=O (stereo partly shown) [DS, diacetyl swietenolide]
PPARγ mRNA expression, fold elevation [1]: five- to six
expression levels of adipogenic markers (adiponectin, adipsin, PPARγ, GLUT4) [1]: increase
GLUT4 translocation to the plasma membrane [2]: increase in GLUT4 translocation
time at which GLUT4 translocation occurs after treatment [2]: ≥ 60 min
induction of 3T3-L1 differentiation into lipid-producing adipocytes [3]: induce 3T3-L1 cells differentiation into lipid-producing adipocytes
ORO stained lipid droplets, fold higher than vehicle treated cells ([3]; day 7): 1.3–1.6 fold
glucose (2-NBDG) uptake [4]: significant increase

fold increase of binding between PPARγ and coactivator compared to vehicle (DMSO) [5]: 36 fold
Compound: C/C=C(\C)C(=O)OC1C2C=C3C(CC[C@@]4(C)C3CC(=O)O[C@H]4c3ccoc3)[C@@](C)(C2=O)C(C(O)C(=O)OC)C1(C)C (stereo partly shown) [Sw, swietenine]
PPARγ mRNA expression, fold elevation [1]: five- to six
expression levels of adipogenic markers (adiponectin, adipsin, PPARγ, GLUT4) [1]: increase
GLUT4 translocation to the plasma membrane [2]: increase in GLUT4 translocation
time at which GLUT4 translocation occurs after treatment [2]: 15 min
induction of 3T3-L1 differentiation into lipid-producing adipocytes [3]: induce 3T3-L1 cells differentiation into lipid-producing adipocytes
ORO stained lipid droplets, fold higher than vehicle treated cells ([3]; day 7): 1.3–1.6 fold
glucose (2-NBDG) uptake [4]: significant increase
elevated cholesterol and triglyceride levels [6]: attenuate
